According to US20230149428A1, “METHOD OF TREATING GENE THERAPY ASSOCIATED TOXICITY WITH ANTIBIOTICS” (Asklepios BioPharmaceutical, Inc., priority 2020, published 2023):

How the values were obtained:
[1] = system: Th1- and Th2-related chemokines; details: upon stimulation; Kuo et al. 2019; cited from earlier work
[2] = system: IL-2, IL-6, IL-7, IL-10, MCP-I, IFNγ, IP-10 and MIG; test: Serum inflammatory cytokine profile after rAAV-Luc, tetracycline pretreatment (Example 2); assay type: in vivo, piglets
Method: (§1) The effect of antibiotic pretreatment on the rAAV particle-induced toxicity e.g., inflammatory response and liver enzyme levels (e.g., toxicity) is examined by measuring levels of endogenous cytokines and liver enzymes AST and ALT in animals injected with rAAV8-Luc particles operably encoding luciferase nucleic acid.
(§2) Female piglets (n=5) are injected intravenously with either PBS alone (antibiotic control) or 25 mg/kg/day tetracycline in PBS 4 hours prior to intravenous administration of PBS alone (viral control) or 2×10^12 particles of rAAV-Luc vector. Small amounts of blood are collected aseptically obtained through the jugular vein at 30 minutes, 60 minutes, 90 minutes, 120 minutes, 1 day, 3 days, 10 days, 21 days, 28 days, 42 days, 60 days post-rAAV-Luc treatment, and serum is isolated. The serum is then analyzed for an inflammatory cytokine profile using the BD™ Cytometric Bead Array Mouse Inflammation Kit (BD™ CBA Mouse Inflammation Kit, BD Biosciences), specifically measuring levels of IL-2, IL-6, IL-7, IL-10, MCP-I, IFNγ, IP-10 and MIG. Liver transaminases e.g., AST and ALT are also measured at the above mentioned timepoints.

[3] = system: liver enzymes AST and ALT; test: Liver transaminases AST/ALT after rAAV-Luc, tetracycline pretreatment (Example 2); assay type: in vivo, piglets; details: 25 mg/kg/day tetracycline i.v. 4 hours prior to 2×10^12 particles rAAV-Luc
Method: as §1, §2

[4] = system: liver transaminases AST and ALT; test: Liver transaminases AST/ALT after rAAV-Luc, tapering prednisone and tetracycline (Example 3); assay type: in vivo, piglets; details: tetracycline 5-50 mg/kg/day, alone or with tapering prednisone from 25 mg/kg
Method: The effect of antibiotic treatment on rAAV particle-induced toxicity is examined by measuring levels of endogenous cytokines and liver transaminases e.g., AST and ALT in animals injected with rAAV-Luc particles operably encoding luciferase nucleic acid.
Female piglets (n=5) are pretreated with 25 mg/kg/day prednisolone 24 hours prior to rAAV8-luc (2×10^12 particles of rAAV-Luc particles) administration and then continued for 4 weeks. Then each week the prednisone is tapered by 5 mg/kg until no prednisone and continued for 15 weeks post AAV administration (2×10^12 particles per piglet). Tetracycline is then administered at 15 mg/kg/day for 16-24 weeks. Small amounts of blood are collected aseptically obtained through the jugular vein at 2 hrs, 4 hrs, 1 day, 3 days, 10 days, 21 days, 4 weeks, 8 weeks, 15 weeks, 24 weeks post-rAAV-Luc treatment, post-rAAV-Luc treatment, and serum is isolated.

[5] = system: IL-8 levels and neutrophil accumulation and activation; details: refractory asthma patients; Simpson et al. 2008; cited from earlier work

CC[C@H]1OC(=O)[C@H](C)[C@@H](O[C@H]2C[C@@](C)(OC)[C@@H](O)[C@H](C)O2)[C@H](C)[C@@H](O[C@@H]2O[C@H](C)C[C@H](N(C)C)[C@H]2O)[C@](C)(O)C[C@@H](C)CN(C)[C@H](C)[C@@H](O)[C@]1(C)O [Azithromycin]
effect on Th1- and Th2-related chemokines [1]: suppress Th1- and Th2-related chemokines

CN(C)[C@@H]1C(O)=C(C(N)=O)C(=O)[C@@]2(O)C(O)=C3C(=O)c4c(O)cccc4[C@@](C)(O)[C@H]3C[C@@H]12 [tetracycline, Tetracycline]
inflammatory response (cytokine levels) resulting from rAAV-Luc vs antibiotic control ([2]; 25 mg/kg/day tetracycline i.v. 4 hours prior to 2×10^12 particles rAAV-Luc i.v.): significantly reduce
inflammatory response, tetracycline followed by PBS alone ([2]; 25 mg/kg/day tetracycline i.v., no vector): no inflammatory response
AST/ALT ratio with time [3]: less than 1
AST/ALT levels vs control piglets [4]: decreased significantly

CC[C@H]1OC(=O)[C@H](C)[C@@H](O[C@H]2C[C@@](C)(OC)[C@@H](O)[C@H](C)O2)[C@H](C)[C@@H](O[C@@H]2O[C@H](C)C[C@H](N(C)C)[C@H]2O)[C@](C)(OC)C[C@@H](C)C(=O)[C@H](C)[C@@H](O)[C@]1(C)O [clarithromycin, Clarithromycin]
effect on IL-8 levels and neutrophil accumulation and activation [5]: modulate IL-8 levels and Neutophil accumulation and activation
